22 compounds from patent US10604529B2, “Fused imidazole compound having indoleamine 2,3-dioxygenase inhibitory activity” (SHENZHEN CHIPSCREEN BIOSCIENCES CO., LTD., priority 2016, dated 2020) can be followed below.

The target in test [1] is T1, Recombinant human IDO enzyme (IDO1 enzyme) (Homo sapiens, UniProt P14902).
T1 construct: purchased BPS Bioscience, USA
Kind of test: In vitro IDO enzymatic activity assay (kynurenine colour reaction, 492 nm). The test is classed as biochemical. The settings on record: for inhibition at 0.2 µM: tested compound concentration 200 nM, recombinant human IDO1, read-out: IDO Enzymatic Inhibition Rate (%) (200 nM); for IC50: recombinant human IDO enzyme. The protocol: The basic principle of the in vitro IDO enzymatic activity detection is to use the IDO enzyme to metabolize the substrate L-tryptophan to produce the product kynurenine in an in vitro enzyme-catalyzed reaction system. The kynurenine is yellow in color reaction with p-dimethylaminobenzaldehyde in glacial acetic acid, and the absorbance value was measured at 492 nm on a microplate reader. The concentration of the product kynurenine in the sample is calculated by comparison to a standard curve of kynurenine with a known concentration.
Recombinant human IDO enzyme (IDO1 enzyme) was purchased from BPS Bioscience, USA.
(3) Control reactions were set up at the same time the detection reaction was carried out. including 0 inhibition positive control with no tested compound added and 0 enzyme negative control with no enzyme added. All tests were run in duplicate.
(4) After the enzymatic reaction was completed, 40 μl of a pre-formulated 30% (w/v) trichloroacetic acid solution was added, and reacted at 65° C. for 20 minutes, followed by centrifugation at 12,000 rpm for 15 minutes.
(5) 100 μl of the supernatant after centrifugation was pipetted and added to a 96-well plate. An equal volume of 2% p-dimethylaminobenzaldehyde in glacial acetic acid was added, well mixed, and allowed to stand at room temperature for 10 minutes.
(6) A microplate reader (ELX800NB) was used to detect the color signal of each well with a detection wavelength of 492 nm.
In addition, the enzymatic inhibition rates were calculated for the tested compounds of different concentration gradients, and then the enzymatic half maximal inhibitory concentration (IC50) was calculated using the IC50 calculator.
According to the above-mentioned method of experiment, the compound of the present disclosure was subjected to an in vitro IDO enzymatic IC50 assay using NLG919 as a positive control compound.

Test [2] deals with T2, IFN-γ-induced IDO enzyme in HeLa cells (Homo sapiens, UniProt P14902).
T2 construct: HeLa cells are human cervical cancer cell lines and can up-regulate the expression of endogenous IDO enzymes; endogenous in cells; host or cells: HeLa cells stimulated with human IFN-γ
T2 sequence (P14902 whole entry): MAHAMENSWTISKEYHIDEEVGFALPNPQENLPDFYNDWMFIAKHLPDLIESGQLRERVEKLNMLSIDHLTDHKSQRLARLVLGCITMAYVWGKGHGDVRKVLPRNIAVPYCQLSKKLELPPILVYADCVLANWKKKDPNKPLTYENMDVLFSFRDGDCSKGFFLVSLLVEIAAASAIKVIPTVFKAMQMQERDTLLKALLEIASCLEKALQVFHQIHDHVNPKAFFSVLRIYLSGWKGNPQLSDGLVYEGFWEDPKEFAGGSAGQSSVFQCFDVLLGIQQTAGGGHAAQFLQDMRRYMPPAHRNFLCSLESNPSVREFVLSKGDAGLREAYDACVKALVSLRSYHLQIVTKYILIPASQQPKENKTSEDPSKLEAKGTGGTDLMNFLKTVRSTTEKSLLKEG
Kind of test: Detection of IDO inhibitory activity at the cellular level (IFN-γ-induced HeLa cells). The settings on record: 48 hours; for inhibition at 1 µM: tested compound 1 μM, human IFN-γ 50 ng/ml, read-out: IDO Inhibitory Rate (%) (1 μM); for EC50: human IFN-γ induced, read-out: IDO EC50 (nM) at the Cellular Level (column head: IC50 (nM)). It counts as cell-based. An excerpt: In the present disclosure, IFN-γ-induced IDO enzyme expression in HeLa cells were used as a model to detect the IDO enzymatic inhibitory activity of the compound at the cellular level. HeLa cells are human cervical cancer cell lines and can up-regulate the expression of endogenous IDO enzymes under the induction of human IFN-γ. The cell supernatant can be subjected to detection of the enzyme-catalyzed product kynurenine by adding the substrate L-tryptophan to the cell culture solution. […] Recombinant human IFN-γ cytokine purchased from Sangon Biotech, Phenol red-free DMEM for cell culture purchased from Gibco. […] The cells were further cultured for 48 hours and detected. (2) 200 μl of the supernatant from the culture well was pipetted, 40 μl of a pre-formulated 30% (w/v) trichloroacetic acid solution was added, allowed to react at 65° C. for 20 minutes, and then centrifuged at 12,000 rpm for 15 minutes. (3) 100 μl of the supernatant after centrifugation was pipetted and added into a 96-well plate, an equal volume of 2% p-dimethylaminobenzaldehyde in glacial acetic acid was added, and they were mixed well and allowed to stand at room temperature for 10 minutes. (4) A microplate reader (ELX800NB) was used to detect the color signal of each well, and the detection wavelength was 492 nm.

T1 sequence (P14902 whole entry): as above

Turning to `O=C(COc1ccc2[nH]c3ccccc3c2c1)N1CCC(C(O)CC2c3ccccc3-c3cncn32)CC1` (stereo not drawn) [Example 17, 2-((9H-carbazol-3-yl)oxy)-1-(4-(1-hydroxy-2-(5H-imidazo[5,1-a]isoindol-5-yl)ethyl)piperidin-1-yl)ethyl-1-one], the inhibition at 0.2 µM in test [1] was 85%. In test [2], the inhibition at 1 µM was 93%.
The matching figures for `O=C(COC1CCCCC1)N1CCC(C(O)CC2c3ccccc3-c3cncn32)CC1` (stereo not drawn) [Example 50, 2-(cyclohexyloxy)-1-(4-(1-hydroxy-2-(5H-imidazo[5,1-a]isoindol-5-yl)ethyl)piperidin-1-yl)ethyl-1-one]: 66% and 69%.
The matching figures for `CN(CC(=O)N1CCC(C(O)CC2c3ccccc3-c3cncn32)CC1)c1ccc2ncccc2c1` (stereo not drawn) [Example 113, 1-(4-(1-hydroxy-2-(5H-imidazo[5,1-a]isoindol-5-yl)ethyl)piperidin-1-yl)-2-(methyl(quinolin-6-yl)amino)ethyl-1-one]: 75% and 74%.
Take `CN(CC(=O)N1CCC(C(O)CC2c3ccccc3-c3cncn32)CC1)c1cccc(Cl)c1` (stereo not drawn) [Example 63]: the inhibition at 0.2 µM in test [1] stood at 90%. Further, in test [2], the inhibition at 1 µM came to 99%.
Turning to `CN(CC(=O)N1CCC(C(O)CC2c3ccccc3-c3cncn32)CC1)c1ccccn1` (stereo not drawn) [Example 109, 1-(4-(1-hydroxy-2-(5H-imidazo[5,1-a]isoindol-5-yl)ethyl)piperidin-1-yl)-2-(methyl(pyridin-2-yl)amino)ethyl-1-one], the inhibition at 1 µM in test [2] was found to be 68%.
In the case of `COc1cccc(N(C)CC(=O)N2CCC(C(O)CC3c4ccccc4-c4cncn43)CC2)c1` (stereo not drawn) [Example 102, 2-((3-methoxyphenyl)(methyl)amino)-1-(4-(1-hydroxy-2-(5H-imidazo[5,1-a]isoindol-5-yl)ethyl)piperidin-1-yl)ethyl-1-one], the inhibition at 0.2 µM in test [1] amounted to 85%. Besides, the inhibition at 1 µM in test [2] came to 95%.
The matching figures for `O=C(COc1ccc2ncccc2c1)N1CCC(C(O)CC2c3ccccc3-c3cncn32)CC1` (stereo not drawn) [Example 23, 1-(4-(1-hydroxy-2-(5H-imidazo[5,1-a]isoindol-5-yl)ethyl)piperidin-1-yl)-2-(quinolin-6-yloxy)ethyl-1-one]: 80% and 77%.
The matching figures for `Cc1ccc(N(C)CC(=O)N2CCC(C(O)CC3c4ccccc4-c4cncn43)CC2)cc1C` (stereo not drawn) [Example 77, 2-((3,4-dimethylphenyl)(methyl)amino)-1-(4-(1-hydroxy-2-(5H-imidazo[5,1-a]isoindol-5-yl)ethyl)piperidin-1-yl)ethyl-1-one]: 82% and 95%.
The matching figures for `CN(CC(=O)N1CCC(C(O)CC2c3ccccc3-c3cncn32)CC1)c1ccc([N+](=O)[O-])cc1` (stereo not drawn) [Example 105, 1-(4-(1-hydroxy-2-(5H-imidazo[5,1-a]isoindol-5-yl)ethyl)piperidin-1-yl)-2-(methyl(4-nitrophenyl)atnino)ethyl-1-one]: 84% and 91%.
As for `CN(CC(=O)N1CCC(C(O)CC2c3ccccc3-c3cncn32)CC1)c1ccc2c(c1)oc1ccccc12` (stereo not drawn) [Example 124, 2-(dibenzo[b,d]furan-3-yl(methyl)amino)-1-(4-(1-hydroxy-2(5H-imidazo[5,1-a]isoindol-5-yl)ethyl)piperidin-1-yl)ethyl-1-one], in test [2], the inhibition at 1 µM is 79%.
What is called IC50 is the point on the concentration scale where inhibition reaches its midpoint. As a reminder, the EC50 is the concentration needed to bring the measured effect to its halfway point. Regarding `CN(CC(=O)N1CCC(C(O)CC2c3ccccc3-c3cncn32)CC1)c1ccccc1` (stereo not drawn) [Example 59, 1-(4-(1-hydroxy-2-(5H-imidazo[5,1-a]isoindol-5-yl)ethyl)piperidin-1-yl)-2-(methyl(phenyl)amino)ethyl-1-one], in test [1], the IC50 is 159 nM and the inhibition at 0.2 µM is 83%. In test [2], the EC50 is 169 nM and the inhibition at 1 µM was 92%.
`CN(CC(=O)N1CCC(C(O)CC2c3ccccc3-c3cncn32)CC1)c1ccc(F)cc1` (stereo not drawn) [Example 72, 2-((4-fluorophenyl)(methyl)amino)-1-(4-(1-hydroxy-2-(5H-imidazo[5,1-a]isoindol-5-yl)ethyl)piperidin-1-yl)ethyl-1-one]: in test [1], the inhibition at 0.2 µM was found to be 73%. In test [2], the inhibition at 1 µM was 91%.
As for `O=C(COc1cccc(C(F)(F)F)c1)N1CCC(C(O)CC2c3ccccc3-c3cncn32)CC1` (stereo not drawn) [Example 48, 2-(3-trifluoromethylphenoxy)-1-(4-(1-hydroxy-2-(5H-imidazo[5,1-a]isoindol-5-yl)ethyl)piperidin-1-yl)ethyl-1-one], in test [1], the inhibition at 0.2 µM came to 89%. Besides, the inhibition at 1 µM in test [2] amounted to 99%.
Take `O=C(COc1ccccc1)N1CCC(C(O)CC2c3ccccc3-c3cncn32)CC1` (stereo not drawn) [Example 7, 1-(4-(1-hydroxy-2-(5H-imidazo[5,1-a]isoindol-5-yl)ethyl)piperidin-1-yl)-2-phenoxyethyl-1-one]: in test [1], the half-maximal inhibitory concentration (IC50) turned out to be 55 nM and the inhibition at 0.2 µM turned out to be 85%. In test [2], the EC50 was found to be 154 nM and the inhibition at 1 µM was found to be 93%.
As for `CCN(CC(=O)N1CCC(C(O)CC2c3ccccc3-c3cncn32)CC1)c1ccccc1` (stereo not drawn) [Example 81, 2-(ethyl(phenyl)amino)-1-(4-(1-hydroxy-2-(5H-imidazo[5,1-a]isoindol-5-yl)ethyl)piperidin-1-yl)ethyl-1-one], the inhibition at 0.2 µM in test [1] stood at 85%. For the same compound, in test [2], the inhibition at 1 µM was found to be 94%.
For the compound `Cc1ccc(OCC(=O)N2CCC(C(O)CC3c4ccccc4-c4cncn43)CC2)cc1C` (stereo not drawn) [Example 46, 2-(3,4-dimethylphenoxy)-1-(4-(1-hydroxy-2-(5H-imidazo[5,1-a]isoindol-5-yl)ethyl)piperidin-1-yl)ethyl-1-one], in test [1], the inhibition at 0.2 µM was 83%. For the same compound, the inhibition at 1 µM in test [2] came out at 93%.
For `CN(CC(=O)N1CCC(C(O)CC2c3ccccc3-c3cncn32)CC1)c1ccc(C#N)cc1` (stereo not drawn) [Example 98], in test [1], the inhibition at 0.2 µM was 81%. For the same compound, the inhibition at 1 µM in test [2] turned out to be 83%.
On to `O=C(COc1ncnc2[nH]cnc12)N1CCC(C(O)CC2c3ccccc3-c3cncn32)CC1` (stereo not drawn) [Example 33, 2-((7H-purin-6-yl)oxy)-1-(4-(1-hydroxy-2-(5H-imidazo[5,1-a]isoindol-5-yl)ethyl)piperidin-1-yl)ethyl-1-one], for which, in test [1], the inhibition at 0.2 µM amounted to 70%.
As to `O=C(COc1ccc2oc3ccccc3c2c1)N1CCC(C(O)CC2c3ccccc3-c3cncn32)CC1` (stereo not drawn) [Example 57, 2-(dibenzo[b,d]furan-2-yloxy)-1-(4-(1-hydroxy-2-(5H-imidazo[5,1-a]isoindol-5-yl)ethyl)piperidin-1-yl)ethyl-1-one], the inhibition at 0.2 µM in test [1] is 88%. Besides, the inhibition at 1 µM in test [2] was found to be 91%.
In the case of `O=C(COc1nc2ccccc2o1)N1CCC(C(O)CC2c3ccccc3-c3cncn32)CC1` (stereo not drawn) [Example 37, 2-(benzo[d]oxazolin-2-yloxy)-1-(4-(1-hydroxy-2-(5H-imidazo[5,1-a]isoindol-5-yl)ethyl)piperidin-1-yl)ethyl-1-one], in test [1], the inhibition at 0.2 µM came to 83%. The inhibition at 1 µM in test [2] is 97%.
Take `O=C(COc1ccc2[nH]ccc2c1)N1CCC(C(O)CC2c3ccccc3-c3cncn32)CC1` (stereo not drawn) [Example 26, 2-((1H-indol-5-yl)oxy)-1-(4-(1-hydroxy-2-(5H-imidazo[5,1-a]isoindol-5-yl)ethyl)piperidin-1-yl)-ethyl-1-one]: the inhibition at 0.2 µM in test [1] worked out at 89%. For the same compound, in test [2], the inhibition at 1 µM turned out to be 92%.
Taken in the same sequence, the figures for `O=C(COc1cccc(Cl)c1)N1CCC(C(O)CC2c3ccccc3-c3cncn32)CC1` (stereo not drawn) [Example 41, 2-(3-chlorophenoxy)-1-(4-(1-hydroxy-2-(5H-imidazo[5,1-a]isoindol-5-yl)ethyl)piperidin-1-yl)ethyl-1-one] were 92% and 99%.
